Data published in PMC10511816 (The Journal of Biological Chemistry, 2023).
“And” between values parts separate entries of the source, which are not always exact repeats. Identical values can stand only once.

Experiments:
[1] = biological target: T1, Purine nucleoside phosphorylase (PNP) (Homo sapiens, UniProt P00491); set-up: method as in PMID 5653179, PMID 121041; settings: cited from earlier work
T1 construct: purchased Sigma-Aldrich; host or cells: E. coli
T1 sequence (P00491 1-289): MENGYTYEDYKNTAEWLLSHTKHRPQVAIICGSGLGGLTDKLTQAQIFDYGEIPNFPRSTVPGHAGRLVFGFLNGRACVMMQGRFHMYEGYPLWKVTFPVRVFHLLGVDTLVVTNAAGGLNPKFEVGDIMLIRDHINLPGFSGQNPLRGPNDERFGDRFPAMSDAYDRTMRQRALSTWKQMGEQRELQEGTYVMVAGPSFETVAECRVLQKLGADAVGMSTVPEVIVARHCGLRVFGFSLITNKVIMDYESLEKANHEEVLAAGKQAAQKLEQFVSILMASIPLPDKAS

[2] = tested on: hypoxanthine-guanine phosphoribosyltransferase (HGPRT); settings: cited from earlier work
[3] = biological target: XOR; settings: read-out: Ki for the xanthine to uric acid reaction; steady-state kinetic analysis; cited from earlier work
[4] = biological target: T2, XO type enzyme (Bos taurus, UniProt P80457); assay: half-life of the Ered•oxypurinol complex (activity recovery); type: biochemical, bovine
T2 construct: Bovine milk was obtained from the animal farm of the Nippon Veterinary and Life Science University; from tissue; host or cells: bovine milk
T2 sequence (P80457 whole entry): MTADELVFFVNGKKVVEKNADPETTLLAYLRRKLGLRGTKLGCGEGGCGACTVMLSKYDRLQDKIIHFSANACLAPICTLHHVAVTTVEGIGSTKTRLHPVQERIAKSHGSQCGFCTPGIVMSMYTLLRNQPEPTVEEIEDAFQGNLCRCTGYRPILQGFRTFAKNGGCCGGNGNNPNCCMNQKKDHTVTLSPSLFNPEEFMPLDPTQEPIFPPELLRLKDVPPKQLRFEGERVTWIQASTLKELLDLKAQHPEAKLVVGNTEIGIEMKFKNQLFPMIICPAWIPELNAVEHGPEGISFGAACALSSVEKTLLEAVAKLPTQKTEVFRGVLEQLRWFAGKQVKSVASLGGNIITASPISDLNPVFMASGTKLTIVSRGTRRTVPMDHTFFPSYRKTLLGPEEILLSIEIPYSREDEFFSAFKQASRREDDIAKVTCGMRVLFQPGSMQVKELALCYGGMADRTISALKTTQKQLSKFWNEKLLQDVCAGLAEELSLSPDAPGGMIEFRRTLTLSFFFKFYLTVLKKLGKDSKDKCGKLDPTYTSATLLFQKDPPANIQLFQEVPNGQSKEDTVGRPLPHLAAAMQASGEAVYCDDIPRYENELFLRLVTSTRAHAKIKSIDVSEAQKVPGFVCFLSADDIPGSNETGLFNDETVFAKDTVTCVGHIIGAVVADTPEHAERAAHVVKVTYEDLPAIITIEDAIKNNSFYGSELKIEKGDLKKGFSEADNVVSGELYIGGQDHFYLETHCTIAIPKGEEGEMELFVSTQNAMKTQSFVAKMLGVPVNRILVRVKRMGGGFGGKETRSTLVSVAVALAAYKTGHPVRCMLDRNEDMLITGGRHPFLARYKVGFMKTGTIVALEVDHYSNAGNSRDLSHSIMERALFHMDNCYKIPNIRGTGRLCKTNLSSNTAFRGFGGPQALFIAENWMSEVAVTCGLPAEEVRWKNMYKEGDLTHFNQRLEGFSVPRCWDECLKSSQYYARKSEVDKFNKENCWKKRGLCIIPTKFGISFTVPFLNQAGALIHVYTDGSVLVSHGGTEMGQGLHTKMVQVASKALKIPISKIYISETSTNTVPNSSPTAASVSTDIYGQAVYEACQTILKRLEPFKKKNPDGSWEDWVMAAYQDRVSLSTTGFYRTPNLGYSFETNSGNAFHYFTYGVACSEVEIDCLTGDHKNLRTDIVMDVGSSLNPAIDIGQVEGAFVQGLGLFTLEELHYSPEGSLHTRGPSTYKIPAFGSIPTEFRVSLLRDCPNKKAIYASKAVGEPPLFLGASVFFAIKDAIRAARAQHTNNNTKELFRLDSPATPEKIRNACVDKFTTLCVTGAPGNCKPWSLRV
Experimental: We next examined the half-life of the Ered•oxypurinol complex under more physiological conditions.
The main figure plots activity (%) against time.
Uric acid production was measured at 295 nm with UV-1800 Spectrophotometer at 25 °C. The activity recovery was followed overtime until the activity to flavin ratio reached approximately 200, indicating full reactivation.

[5] = tested on: XOR; settings: pH 8.5 and 25 °C; cited from earlier work
[6] = biological target: XO (Bos taurus, UniProt P80457); assay: initial-velocity steady-state kinetics of XO, O2 as electron acceptor; type: biochemical, bovine; set-up: Bovine milk was obtained from the animal farm of the Nippon Veterinary and Life Science University; from tissue; host or cells: bovine milk
XO, sequence (P80457 whole entry): as above
Experimental: Bovine milk was obtained from the animal farm of the Nippon Veterinary and Life Science University. […] The dehydrogenase form of the enzyme (XDH) was obtained by reacting XO immediately upon purification with 5 mM DTT at pH 8.5, 25 °C for 1 h. XO and XDH assays were carried out at 25 °C under aerobic conditions. […] A total of 500 μM β-NAD^+ was added to the same reaction solution for XDH activity. Physiological conditions such as pH 7.4 (0.1 M potassium phosphate buffer (KPB), 0.2 mM EDTA) and the addition of 50 μM β-NADH were also used. The activity was measured by following 295 nm and 340 nm on a UV-1800 or UV1900i spectrophotometer. […] In addition, the enzyme reaction solution was quenched with perchloric acid and neutralized with K2CO3, with products analyzed using HPLC as described below. Spectrophotometric data were analyzed using UV-Probe software Ver. 2.70 or LabSolutions UV-Vis Ver. […] Kinetic parameters were determined from nonlinear curve fits of raw data using GraphPad Prism 9 software.
A295 indicates the concentration of uric acid yielded by XOR. […] A295 indicates the concentration of uric acid yielded by XOR. Figure S2. The XOR inhibition mode of oxypurinol.A–G, Lineweaver-Burk plots were generated to visualize data and estimated the inhibition patterns. Data are representative of least two independent experiments. […] Figure S3. […] B, mode of inhibition of oxypurinol on the inosine degradation reaction of PNP. […] 0, 250, 375, 500, 750 and 1000 μM of oxypurinol were used. […] The rate of NAD^+ conversion to NADH was measured at A340 nm.

SMILES	Ki [1] [µM]	substrate or inhibitor of HGPRT [2]	Ki [3] [µM]	half-life of the Ered•oxypurinol complex ([4]; pH 7.4, 25 °C)	half-life of the Ered•oxypurinol complex ([4]; pH 7.4, 37 °C)	half-life of the Ered•oxypurinol complex ([4]; pH 8.5, 37 °C)	half-life for reoxidation / dissociation of the Ered•oxypurinol complex [5] [h]	Ki [6] [µM]	Types of inhibition ([6]; XO, substrate xanthine, O2, 295 nm)	Ki for oxypurinol relative to Ki for allopurinol ([6]; both XO and XDH, allopurinol Ki ref 19)
Oc1ncnc2[nH]ncc12 [Allopurinol]	> 200	is a substrate	0.1							
O=c1[nH]c(=O)c2c[nH]nc2[nH]1 [Oxypurinol]				9.2 h and 9.198 h	1.17 h and 1.22 h	1.17 h and 1.18 h	5	6.35 ± 0.96	Competitive	about 10 fold
